Reference: EP3318253B1, “COMPOSITIONS COMPRISING WNT INHIBITORS FOR TREATING CANCER” (Schmidt-Wolf, Ingo, priority 2010, dated 2012)

Legend:
[1] = test system: OCI-Ly8 LAM53; assay: Cell viability by DiOC6 staining, flow cytometry; type: cell-based; details: Homo sapiens
Description: (§1) Experiments were performed as reported recently.
(§2) PBL derived from healthy individuals were used as controls. […] ND, not done.

[2] = test system: RPMI 8226; assay: Cell viability by DiOC6 staining, flow cytometry; type: cell-based; details: Homo sapiens, 72 h, 1x10^5 cells cultured three days, various concentrations
Description: as §1, §2

[3] = test system: Raji; assay: Cell viability by DiOC6 staining, flow cytometry; type: cell-based; details: Homo sapiens
Description: as §1, §2

[4] = test system: SU-DHL 4; assay: Cell viability by DiOC6 staining, flow cytometry; type: cell-based; details: Homo sapiens
Description: as §1, §2

[5] = test system: U266; assay: Cell viability by DiOC6 staining, flow cytometry; type: cell-based; details: Homo sapiens, U-266, 72 h, 1x10^5 cells cultured three days, various concentrations
Description: as §1, §2

[6] = test system: lymphoma cell lines; assay: Cell viability by DiOC6 staining in lymphoma cell lines; type: cell-based, human; details: result in words
Description: as §1, §2

[7] = test system: beta catenin; assay: Western blot, Wnt/beta catenin pathway in lymphoma cells; type: cell-based, human
Description: Western blot was performed as described recently^16.
(§3) • Figure 1. […] Data are shown as mean ± SD. • Figure 2. […] Data are shown as mean ± SD. • Figure 3. […] (A) Flow cytometric results. […] Finally, ECL reagent was utilized for detection. • Figure 4C. […] Finally, ECL reagent was utilized for detection. • Figure 5. Effect of EA on viability of myeloma primary cells. […] Results represent data from two separate experiments. Data are shown as mean. • Figure 6. […] (A) Tumor growth and (B) overall survival were measured. Six animals were assayed per group.
Western blot was performed as described recently.
• Figure 7. […] Data are shown as mean ± SD. • Figure 8. […] Data are shown as mean ± SD. • Figure 9. Effect of CIC on the Wnt/beta catenin pathway. (A) Flow cytometric results. […] Finally, ECL reagent was utilized for detection. • Figure 10C. […] Finally, ECL reagent was utilized for detection. • Figure 11. […] (A) Tumor growth and (B) overall survival were measured. Six animals were assayed per group. HD CIC.

[8] = test system: primary myeloma cells derived from bone marrow from patients with multiple myeloma; assay: Viability of myeloma primary cells from bone marrow; type: cell-based, human; details: incubated three days; preliminary data
Description: Bone marrow samples from patients with myeloma were taken after informed consent, single cell suspensions generated and cells ficolled. Cells were incubated with or without EA for three days and measured for viability.
as §3
Bone marrow samples from patients with myeloma were taken after informed consent, single cell suspensions generated and cells ficolled. Cells were incubated with or without CIC for three days and measured for viability.
Bone marrow samples from patients with myeloma were taken after informed consent, single cell suspensions generated and cells ficolled. Cells were incubated with or without GF for three days and measured for viability.

[9] = test system: lymphoma and myeloma cell lines; assay: Titration of the optimal concentration; type: cell-based, human; details: without significantly deteriorating viability of normal PBMCs, data not shown
From the text: (§4) As a first step, we determined the optimal concentration of EA in various lymphoma and myeloma cell lines. Subsequently, we determined the optimal concentration of EA in PBMCs derived from healthy individuals in order to check for toxicity. […] The effect of DMSO as a toxic solvent was only observed in the myeloma cell line OPM-2 (Figure 1C). As a control, peripheral blood mononuclear cells (PBMCs) were investigated by FACS analysis. A toxic effect affecting the cells induced a shift from viable, DiOC6-positive cells to apoptotic, DiOC6-negative cells.
as §1
as §4, with “CIC” for “EA”, “(Fig. 7C).” for “(Figure 1C).”

[10] = test system: Wnt/beta catenin; details: Gen-plus drug library, 960 compounds; cited from earlier work
[11] = Cell viability by DiOC6 staining, flow cytometry (normal control cells); type: cell-based, human; details: human; control of PBMC; after 72 h; read-out: relative viability
Description: PBMCs were isolated from blood of healthy donors by Ficoll-Hypaque density gradient centrifugation. Blood from buffy coats was mixed 1:2 with PBS/1% BSA (both PAA, Cölbe, Germany) and used for a ficoll gradient (LymphoPrep, PAA, Cölbe, Germany). After the centrifugation at 800 g for 30 minutes, the leukocyte layer was removed and transferred to new tubes. Subsequently, these cells were washed 3 times with PBS/1%BSA and re-suspended in fresh medium, consisting of RPMI medium (PAA, Cölbe, Germany) with 10% fetal calf serum (Invitrogen, Karlsruhe, Germany), 2.5% hepes buffer solution (PAA, Cölbe, Germany), and 1% penicillin/streptomycin (PAA, Cölbe, Germany).
as §1

[12] = test system: Wnt/β-catenin target genes, including LEF-1, cyclin D1 and fibronectin; details: CLL cells exposed to EA; cited from earlier work
[13] = molecular target: LEF-1 protein (Homo sapiens, UniProt Q9UJU2); details: immune co-precipitation; destabilizes the LEF-1/β-catenin complex; cited from earlier work
LEF-1 protein, sequence (Q9UJU2 whole entry): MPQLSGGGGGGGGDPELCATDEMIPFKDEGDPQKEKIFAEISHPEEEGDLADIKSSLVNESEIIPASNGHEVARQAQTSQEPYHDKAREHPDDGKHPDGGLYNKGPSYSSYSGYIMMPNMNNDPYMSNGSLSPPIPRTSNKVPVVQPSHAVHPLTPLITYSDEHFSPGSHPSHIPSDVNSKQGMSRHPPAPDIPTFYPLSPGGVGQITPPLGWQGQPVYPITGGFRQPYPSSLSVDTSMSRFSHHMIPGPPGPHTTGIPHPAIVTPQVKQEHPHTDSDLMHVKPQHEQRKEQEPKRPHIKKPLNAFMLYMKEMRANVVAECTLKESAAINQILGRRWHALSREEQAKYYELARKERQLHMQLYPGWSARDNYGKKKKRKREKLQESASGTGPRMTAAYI

Structure (SMILES): Cc1cc(C2CCCCC2)n(O)c(=O)c1 [CIC, ciclopirox olamine]
- IC50 ([1]; OCI-Ly8, LAM-53, after 72 h): 2 µM
- IC50 [2]: 6 µM
- IC50 ([3]; after 72 h): 6 µM
- IC50 ([4]; SU-DHL-4, after 72 h): 7 µM
- IC50 [5]: 6 µM
- viability of lymphoma cell lines in vitro [6]: significantly (p<0.05) decreased
- beta catenin expression in lymphoma cells [7]: down regulated
- growth of primary myeloma cells [8]: inhibits the growth
- most effective concentration to initialize cell death [9]: 30 µM
- identified in TOPflash reporter screen [10]: Wnt/beta catenin inhibitors

Structure (SMILES): C=C(CC)C(=O)c1ccc(OCC(=O)O)c(Cl)c1Cl [EA, 2-[2,3-dichloro-4-(2-methylidenebutanoyl)phenoxy] acetic acid]
- IC50 ([1]; 72 h, OCI-Ly8 LAM53, 1x10^5 cells cultured three days, various concentrations): 57 µM
- IC50 [2]: 8 µM
- IC50 ([3]; 72 h, 1x10^5 cells cultured three days, various concentrations): 33 µM
- IC50 ([4]; 72 h, SU-DHL 4, 1x10^5 cells cultured three days, various concentrations): 58 µM
- IC50 [5]: 60 µM
- viability at 72 h, 30 µM [11]: 89.5 ± 3.1%
- viability of lymphoma cell lines in vitro [6]: significantly (p<0.05) decreased
- beta catenin expression in lymphoma cells [7]: down regulated
- growth of primary myeloma cells [8]: inhibits the growth
- most effective concentration to initialize cell death [9]: 30 µM
- identified in TOPflash reporter screen [10]: Wnt/beta catenin inhibitors
- expression of Wnt/β-catenin target genes [12]: decreased
- binding to LEF-1 protein [13]: directly bind
